Experimental data from patent US11434242B2, “Dopamine-b-hydroxylase inhibitors” (BIAL-PORTELA & Cª, S.A., priority 2017, dated 2022).
Marks after values point to notes of the source that are not given here.

Molecular target: T1, Dopamine beta hydroxylase (Homo sapiens, UniProt P09172)
T1 construct: 125 μl of plasma; tissue Instituto Português do Sangue Transplantação; host or cells: human plasma from healthy donors
T1 sequence (P09172 40-617 limits assumed): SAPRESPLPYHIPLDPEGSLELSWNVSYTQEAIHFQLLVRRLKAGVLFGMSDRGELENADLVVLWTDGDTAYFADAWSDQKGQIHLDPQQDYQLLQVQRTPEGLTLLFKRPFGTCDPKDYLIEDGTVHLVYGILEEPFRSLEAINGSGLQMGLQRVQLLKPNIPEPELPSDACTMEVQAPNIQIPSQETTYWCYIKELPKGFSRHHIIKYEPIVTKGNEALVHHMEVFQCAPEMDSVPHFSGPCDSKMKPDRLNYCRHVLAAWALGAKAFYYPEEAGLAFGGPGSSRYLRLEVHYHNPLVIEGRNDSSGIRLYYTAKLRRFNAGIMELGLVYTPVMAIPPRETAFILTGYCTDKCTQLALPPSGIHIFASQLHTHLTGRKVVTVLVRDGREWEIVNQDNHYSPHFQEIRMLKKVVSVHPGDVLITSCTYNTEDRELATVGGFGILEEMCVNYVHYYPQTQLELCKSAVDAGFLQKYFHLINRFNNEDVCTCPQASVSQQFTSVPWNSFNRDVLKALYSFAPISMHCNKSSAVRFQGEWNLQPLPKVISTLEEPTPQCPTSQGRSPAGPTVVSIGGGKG
Assay: Dopamine beta hydroxylase activity in human plasma
Type: biochemical
Details: for Plasma (1 μM), activity in % of control: inhibitor 1 μM
How it was run: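 Healthy-donor human plasma pre-incubated 10 min at 37° C with compound at final 10, 100 or 1000 nM in pH 5.0 acetate buffer with ascorbate, fumarate, pargyline, N-ethylmaleimide, catalase and copper sulfate. Tyramine substrate then added for 45 min; octopamine formed was isolated by SCX cartridge, periodate-converted and read at 330 nm; activity given as % control.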

Row | Compound | Plasma (0.01 μM), activity in % of control (inhibitor 0.01 μM) | Plasma (0.1 μM), activity in % of control (inhibitor 0.1 μM) | Plasma (1 μM), activity in % of control | Plasma (0.01 μM), activity in % of control, re-test (asterisked) (inhibitor 0.01 μM, re-tested under the same experimental conditions, asterisked data believed to be correct) | Plasma (0.1 μM), activity in % of control, re-test (asterisked) (inhibitor 0.1 μM, re-tested under the same experimental conditions, asterisked data believed to be correct)
1 | Cn1c(CC(=O)N[C@H]2CC[C@H](O)CC2)c2n(c1=S)C[C@@]1(c3cc(Cl)ccc3F)C[C@@H]21 [Example 355, 2-((5aS,6aR)-5a-(5-chloro-2-fluorophenyl)-2-methyl-3-thioxo-2,3,5,5a,6,6a-hexahydrocyclopropa[3,4]pyrrolo[1,2-c]imidazol-1-yl)-N-((1r,4R)-4-hydroxycyclohexyl)acetamide] | 56.4 % of control | 14.0 % of control |  |  | 
2 | Cn1ccnc1CCc1[nH]c(=S)n2c1C[C@H](c1c(F)c(F)cc(F)c1F)C2 [Example 217, (R)-1-(2-(1-methyl-1H-imidazol-2-yl)ethyl)-6-(2,3,5,6-tetrafluorophenyl)-2,5,6,7-tetrahydro-3H-pyrrolo[1,2-c]imidazole-3-thione] | 99.8 % of control | 92.3 % of control |  |  | 
3 | Cn1c(CC(=O)N[C@@H]2CCCOC2)c2n(c1=S)C[C@@]1(c3cc(Cl)ccc3F)C[C@@H]21 [Example 301, 2-((5aS,6aR)-5a-(5-chloro-2-fluorophenyl)-2-methyl-3-thioxo-2,3,5,5a,6,6a-hexahydrocyclopropa[3,4]pyrrolo[1,2-c]imidazol-1-yl)-N—((R)-tetrahydro-2H-pyran-3-yl)acetamide] | 49.1 % of control | 6.4 % of control |  |  | 
4 | F.Fc1ccc(Br)cc1[C@]12C[C@H]1c1c(CCNC3CCC3)[nH]c(=S)n1C2 [Example 188, (5aS,6aR)-5a-(5-bromo-2-fluorophenyl)-1-(2-(cyclobutylamino)ethyl)-5,5a,6,6a-tetrahydrocyclopropa[3,4]pyrrolo[1,2-c]imidazole-3(2H)-thione hydrofluoride] | 60.9 % of control | 15.4 % of control |  |  | 
5 | Cn1c(CC(=O)N2CCOCC2)c2n(c1=S)C[C@@H](c1c(F)c(F)cc(F)c1F)C2 [Example 242, (R)-2-(2-methyl-6-(2,3,5,6-tetrafluorophenyl)-3-thioxo-2,5,6,7-tetrahydro-3H-pyrrolo[1,2-c]imidazol-1-yl)-1-morpholinoethan-1-one] | 91.5 % of control | 53.6 % of control |  |  | 
6 | Cn1c(CC(=O)NCC2CCCO2)c2n(c1=S)C[C@@H](c1c(F)c(F)cc(F)c1F)C2 (stereo in doubt) [Example 391, 2-((R)-2-methyl-6-(2,3,5,6-tetrafluorophenyl)-3-thioxo-2,5,6,7-tetrahydro-3H-pyrrolo[1,2-c]imidazol-1-yl)-N—(((R)-tetrahydrofuran-2-yl)methyl)acetamide] | 83.8 % of control | 40.7 % of control |  |  | 
7 | CN(C(=O)Cc1[nH]c(=S)n2c1[C@@H]1C[C@]1(c1cc(Br)ccc1F)C2)C1CCCC1 [Example 155, 2-((5aS,6aR)-5a-(5-bromo-2-fluorophenyl)-3-thioxo-2,3,5,5a,6,6a-hexahydrocyclopropa[3,4]pyrrolo[1,2-c]imidazol-1-yl)-N-cyclopentyl-N-methylacetamide] | 91.5 % of control | 19.7 % of control |  |  | 
8 | Cn1c(CC(=O)O)c2n(c1=S)C[C@@H](c1c(F)c(F)cc(F)c1F)C2 [Example 229, (R)-2-(2-methyl-6-(2,3,5,6-tetrafluorophenyl)-3-thioxo-3,5,6,7-tetrahydro-2H-pyrrolo[1,2-c]imidazol-1-yl)acetic Acid] | 84.3 % of control | 38.3 % of control |  |  | 
9 | Cl.Cn1c(CCNCC(F)(F)F)c2n(c1=S)C[C@@]1(c3cc(Br)ccc3F)C[C@@H]21 [Example 334, (5aS,6aR)-5a-(5-bromo-2-fluorophenyl)-2-methyl-1-(2-((2,2,2-trifluoroethyl)amino)ethyl)-5,5a,6,6a-tetrahydrocyclopropa[3,4]pyrrolo[1,2-c]imidazole-3(2H)-thione Hydrochloride] | 80.3 % of control | 41.9 % of control |  |  | 
10 | [2H]C([2H])([2H])n1c(CC(=O)O)c2n(c1=S)C[C@@]1(c3cc(Br)ccc3F)C[C@@H]21 [Example 462, 2-((5aS,6aR)-5a-(5-bromo-2-fluorophenyl)-2-(methyl-d)-3-thioxo-2,3,5,5a,6,6a-hexahydrocyclopropa[3,4]pyrrolo[1,2-c]imidazol-1-yl)acetic Acid] | 50.2 % of control | 10.3 % of control |  |  | 
11 | Cn1c(CC(=O)N[C@@H]2CCOC2)c2n(c1=S)C[C@@]1(c3cc(Cl)ccc3F)C[C@@H]21 [Example 281, 2-((5aS,6aR)-5a-(5-chloro-2-fluorophenyl)-2-methyl-3-thioxo-2,3,5,5a,6,6a-hexahydrocyclopropa[3,4]pyrrolo[1,2-c]imidazol-1-yl)-N—((R)-tetrahydrofuran-3-yl)acetamide] | 107.9 % of control | 29.8 % of control |  |  | 

Now from value to compound:

Row | Plasma (0.01 μM), activity in % of control (inhibitor 0.01 μM) | Plasma (0.1 μM), activity in % of control (inhibitor 0.1 μM) | Plasma (1 μM), activity in % of control | Plasma (0.01 μM), activity in % of control, re-test (asterisked) (inhibitor 0.01 μM, re-tested under the same experimental conditions, asterisked data believed to be correct) | Plasma (0.1 μM), activity in % of control, re-test (asterisked) (inhibitor 0.1 μM, re-tested under the same experimental conditions, asterisked data believed to be correct) | Compound
12 |  | 69.2 % of control | 16.6 % of control |  |  | O=C(Cc1[nH]c(=S)n2c1C[C@H](c1c(F)c(F)cc(F)c1F)C2)N1CCC(O)CC1 [Example 82, (R)-1-(4-hydroxypiperidin-1-yl)-2-(6-(2,3,5,6-tetrafluorophenyl)-3-thioxo-2,5,6,7-tetrahydro-3H-pyrrolo[1,2-c]imidazol-1-yl)ethan-1-one]
13 | 106.5 % of control | 43.7 % of control |  |  |  | O=C(Cc1[nH]c(=S)n2c1C[C@H](c1c(F)ccc(Br)c1F)C2)N1CCS(=O)(=O)CC1 [Example 125, (R)-2-(6-(3-bromo-2,6-difluorophenyl)-3-thioxo-2,5,6,7-tetrahydro-3H-pyrrolo[1,2-c]imidazol-1-yl)-1-(1,1-dioxidothiomorpholino)ethan-1-one]
14 | 90.8 % of control | 55.8 % of control |  |  |  | Cn1c(CCC(=O)N2CCC[C@H]2CO)c2n(c1=S)C[C@@H](c1c(F)ccc(F)c1F)C2 [Example 267, 1-((S)-2-(hydroxymethyl)pyrrolidin-1-yl)-3-((R)-2-methyl-3-thioxo-6-(2,3,6-trifluorophenyl)-2,5,6,7-tetrahydro-3H-pyrrolo[1,2-c]imidazol-1-yl)propan-1-one]
15 | 90.6 % of control | 65.7 % of control |  |  |  | O=C(Cc1[nH]c(=S)n2c1C[C@H](c1c(F)c(F)cc(F)c1F)C2)NC1COC1 [Example 393, (R)—N-(oxetan-3-yl)-2-(6-(2,3,5,6-tetrafluorophenyl)-3-thioxo-2,5,6,7-tetrahydro-3H-pyrrolo[1,2-c]imidazol-1-yl)acetamide]
16 | 124.8 % of control | 81.4 % of control |  |  |  | O=C(Cc1[nH]c(=S)n2c1C[C@H](c1c(F)ccc(F)c1F)C2)N1CCOCC1 [Example 366, (R)-2-(6-(2,3,6-trifluorophenyl)-3-thioxo-2,5,6,7-tetrahydro-3H-pyrrolo[1,2-c]imidazol-1-yl)-1-morpholinoethan-1-one]
17 | 28.9 % of control | 2.8 % of control |  |  |  | Cn1c(CC(=O)NC2CCOCC2)c2n(c1=S)C[C@H](c1c(F)ccc(Br)c1F)C2 [Example 406, (S)-2-(6-(3-bromo-2,6-difluorophenyl)-2-methyl-3-thioxo-2,5,6,7-tetrahydro-3H-pyrrolo[1,2-c]imidazol-1-yl)-N-(tetrahydro-2H-pyran-4-yl)acetamide]
18 | 50.1 % of control | 10.3 % of control |  |  |  | O=C(Cc1[nH]c(=S)n2c1C[C@H](c1c(F)c(F)cc(F)c1F)C2)NC1CCS(=O)(=O)CC1 [Example 129, (R)—N-(1,1-dioxidotetrahydro-2H-thiopyran-4-yl)-2-(6-(2,3,5,6-tetrafluorophenyl)-3-thioxo-2,5,6,7-tetrahydro-3H-pyrrolo[1,2-c]imidazol-1-yl)acetamide]
19 | 50.8 % of control | 3.2 % of control |  | 78.0* % of control | 28.0* % of control | CN(C(=O)Cc1[nH]c(=S)n2c1C[C@@H](c1c(F)ccc(Br)c1F)C2)C1CCOC1 (stereo partly drawn) [Example 167, 2-((S)-6-(3-bromo-2,6-difluorophenyl)-3-thioxo-2,5,6,7-tetrahydro-3H-pyrrolo[1,2-c]imidazol-1-yl)-N-methyl-N-(tetrahydrofuran-3-yl)acetamide]
20 |  | 4.3 % of control | 0 % of control |  |  | O=C(Cc1[nH]c(=S)n2c1C[C@@H](c1c(F)ccc(Cl)c1F)C2)NCCCN1CCOCC1 [Example 89, (S)-2-(6-(3-chloro-2,6-difluorophenyl)-3-thioxo-2,5,6,7-tetrahydro-3H-pyrrolo[1,2-c]imidazol-1-yl)-N-(3-morpholinopropyl)acetamide]
